Results reported in PubChem BioAssay AID1963984 (Molecular Pharmacology Branch, DTP, NCI, 2024).

Tested on: 233499-124-R-J3-PDC spheroids with HUVEC/MSC, viability
Test: Anticancer human tumor 233499-124-R-J3-PDC patient-derived colon adenocarcinoma cell line growth inhibition [PI3K]
Conditions: for IC50: curve of first compound; for viability, T/C: stronger effect = lower value
How it was run: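 Stroma-containing spheroids: tumor line, pooled-donor HUVEC, hMSC. Treatments: targeted agents with PI3K inhibitors. Dosing: clinically relevant, half-log spacing, 10 microM ceiling without known Cmax. Read-out: cell viability.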

[1] = second compound 0.0316 µM, first compound 0.0316 µM
[2] = second compound 0.0316 µM, first compound 0.1 µM
[3] = second compound 0.0316 µM, first compound 0.316 µM
[4] = second compound 0.0316 µM, first compound 1 µM
[5] = second compound 0.0316 µM, first compound 3.16 µM
[6] = second compound 0.0316 µM, first compound 10 µM
[7] = second compound 0.1 µM, first compound 0.0316 µM
[8] = second compound 0.1 µM, first compound 0.1 µM
[9] = second compound 0.1 µM, first compound 0.316 µM
[10] = second compound 0.1 µM, first compound 1 µM
[11] = second compound 0.1 µM, first compound 3.16 µM
[12] = second compound 0.1 µM, first compound 10 µM
[13] = second compound 0.316 µM, first compound 0.0316 µM
[14] = second compound 0.316 µM, first compound 0.1 µM
[15] = second compound 0.316 µM, first compound 0.316 µM
[16] = second compound 0.316 µM, first compound 1 µM
[17] = second compound 0.316 µM, first compound 3.16 µM
[18] = second compound 0.316 µM, first compound 10 µM
[19] = second compound 1 µM, first compound 0.0316 µM
[20] = second compound 1 µM, first compound 0.1 µM
[21] = second compound 1 µM, first compound 0.316 µM
[22] = second compound 1 µM, first compound 1 µM
[23] = second compound 1 µM, first compound 3.16 µM
[24] = second compound 1 µM, first compound 10 µM
[25] = second compound 3.16 µM, first compound 0.0316 µM
[26] = second compound 3.16 µM, first compound 0.1 µM
[27] = second compound 3.16 µM, first compound 0.316 µM
[28] = second compound 3.16 µM, first compound 1 µM
[29] = second compound 3.16 µM, first compound 3.16 µM
[30] = second compound 3.16 µM, first compound 10 µM
[31] = second compound 10 µM, first compound 0.0316 µM
[32] = second compound 10 µM, first compound 0.1 µM
[33] = second compound 10 µM, first compound 0.316 µM
[34] = second compound 10 µM, first compound 1 µM
[35] = second compound 10 µM, first compound 3.16 µM
[36] = second compound 10 µM, first compound 10 µM
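Note: spheroids exposed to agents for seven days before readout.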
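Throughout, for viability, T/C: percent viability relative to DMSO vehicle control taken as 100%.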

Question: For `CCCS(=O)(=O)Nc1ccc(F)c(C(=O)c2c[nH]c3ncc(-c4ccc(Cl)cc4)cc23)c1F` + CC(Nc1ncnc2nc[nH]c12)c1cc2cccc(Cl)c2c(=O)n1-c1ccccc1, which IC50 (second compound 0.0316 µM) is on record?
Answer: 4.97 µM

Question: What about the IC50 (second compound 0.1 µM) of the same compound?
Answer: 5.13 µM

Question: What about the IC50 (second compound 0.316 µM) of the same compound?
Answer: 5.49 µM

Question: And the IC50 (second compound 1 µM)?
Answer: 4.61 µM

Question: What about the IC50 (second compound 3.16 µM) of the same compound?
Answer: 4.58 µM

Question: And the IC50 (second compound 10 µM)?
Answer: 4.4 µM

Question: What about the viability, T/C [1] of the same compound?
Answer: 80.7%

Question: What about the viability, T/C [2] of the same compound?
Answer: 77.9%

Question: What about the viability, T/C [3] of the same compound?
Answer: 97.8%

Question: And the viability, T/C [4]?
Answer: 98.2%

Question: What about the viability, T/C [5] of the same compound?
Answer: 80%

Question: What about the viability, T/C [6] of the same compound?
Answer: 3.53%

Question: What about the viability, T/C [7] of the same compound?
Answer: 97.1%

Question: And the viability, T/C [8]?
Answer: 100%

Question: What about the viability, T/C [9] of the same compound?
Answer: 90.6%

Question: And the viability, T/C [10]?
Answer: 97.6%

Question: And the viability, T/C [11]?
Answer: 82%

Question: What about the viability, T/C [12] of the same compound?
Answer: 5.89%

Question: What about the viability, T/C [13] of the same compound?
Answer: 81.3%

Question: What about the viability, T/C [14] of the same compound?
Answer: 103%

Question: And the viability, T/C [15]?
Answer: 93.6%

Question: What about the viability, T/C [16] of the same compound?
Answer: 94.6%

Question: And the viability, T/C [17]?
Answer: 93.2%

Question: And the viability, T/C [18]?
Answer: 3.19%

Question: What about the viability, T/C [19] of the same compound?
Answer: 90.3%

Question: What about the viability, T/C [20] of the same compound?
Answer: 99.7%

Question: And the viability, T/C [21]?
Answer: 99.7%

Question: What about the viability, T/C [22] of the same compound?
Answer: 96.5%

Question: And the viability, T/C [23]?
Answer: 71.8%

Question: And the viability, T/C [24]?
Answer: 5.59%

Question: What about the viability, T/C [25] of the same compound?
Answer: 94.7%

Question: And the viability, T/C [26]?
Answer: 99.2%

Question: What about the viability, T/C [27] of the same compound?
Answer: 90.6%

Question: What about the viability, T/C [28] of the same compound?
Answer: 85.7%

Question: And the viability, T/C [29]?
Answer: 74.3%

Question: What about the viability, T/C [30] of the same compound?
Answer: 2.26%

Question: And the viability, T/C [31]?
Answer: 78.5%

Question: What about the viability, T/C [32] of the same compound?
Answer: 92.2%

Question: What about the viability, T/C [33] of the same compound?
Answer: 92.1%

Question: What about the viability, T/C [34] of the same compound?
Answer: 74.8%

Question: And the viability, T/C [35]?
Answer: 70.6%

Question: And the viability, T/C [36]?
Answer: 3.63%

Question: Which IC50 (second compound 0.0316 µM) does the source give for `C[C@@H](NC(=O)c1ncnc(N)c1Cl)c1ncc(C(=O)Nc2cc(C(F)(F)F)c(Cl)cn2)s1` + CC(Nc1ncnc2nc[nH]c12)c1cc2cccc(Cl)c2c(=O)n1-c1ccccc1 here?
Answer: > 10 µM

Question: And the IC50 (second compound 0.1 µM)?
Answer: > 10 µM

Question: What about the IC50 (second compound 0.316 µM) of the same compound?
Answer: > 10 µM

Question: What about the IC50 (second compound 1 µM) of the same compound?
Answer: > 10 µM

Question: And the IC50 (second compound 3.16 µM)?
Answer: > 10 µM

Question: What about the IC50 (second compound 10 µM) of the same compound?
Answer: > 10 µM

Question: And the viability, T/C [1]?
Answer: 110%

Question: What about the viability, T/C [2] of the same compound?
Answer: 105%

Question: And the viability, T/C [3]?
Answer: 109%

Question: What about the viability, T/C [4] of the same compound?
Answer: 104%

Question: And the viability, T/C [5]?
Answer: 105%

Question: What about the viability, T/C [6] of the same compound?
Answer: 78.4%

Question: What about the viability, T/C [7] of the same compound?
Answer: 97.4%

Question: What about the viability, T/C [8] of the same compound?
Answer: 105%

Question: And the viability, T/C [9]?
Answer: 116%

Question: And the viability, T/C [10]?
Answer: 106%

Question: And the viability, T/C [11]?
Answer: 110%

Question: What about the viability, T/C [12] of the same compound?
Answer: 101%

Question: What about the viability, T/C [13] of the same compound?
Answer: 109%

Question: And the viability, T/C [14]?
Answer: 120%

Question: What about the viability, T/C [15] of the same compound?
Answer: 111%

Question: What about the viability, T/C [16] of the same compound?
Answer: 95.4%

Question: And the viability, T/C [17]?
Answer: 89.2%

Question: And the viability, T/C [18]?
Answer: 98.5%

Question: What about the viability, T/C [19] of the same compound?
Answer: 83.3%

Question: What about the viability, T/C [20] of the same compound?
Answer: 92.9%

Question: What about the viability, T/C [21] of the same compound?
Answer: 109%

Question: And the viability, T/C [22]?
Answer: 116%

Question: And the viability, T/C [23]?
Answer: 111%

Question: And the viability, T/C [24]?
Answer: 93.7%

Question: And the viability, T/C [25]?
Answer: 106%

Question: And the viability, T/C [26]?
Answer: 101%

Question: And the viability, T/C [27]?
Answer: 97.7%

Question: What about the viability, T/C [28] of the same compound?
Answer: 109%

Question: What about the viability, T/C [29] of the same compound?
Answer: 109%

Question: What about the viability, T/C [30] of the same compound?
Answer: 95.6%

Question: And the viability, T/C [31]?
Answer: 87.8%

Question: And the viability, T/C [32]?
Answer: 90.2%

Question: And the viability, T/C [33]?
Answer: 101%

Question: And the viability, T/C [34]?
Answer: 97.7%

Question: And the viability, T/C [35]?
Answer: 108%

Question: And the viability, T/C [36]?
Answer: 97%

Question: Which IC50 (second compound 0.0316 µM) does the source give for `Cn1ncnc1[C@H]1c2n[nH]c(=O)c3cc(F)cc(c23)N[C@@H]1c1ccc(F)cc1` + CC(Nc1ncnc2nc[nH]c12)c1cc2cccc(Cl)c2c(=O)n1-c1ccccc1 here?
Answer: > 0.1 µM

Question: What about the IC50 (second compound 0.1 µM) of the same compound?
Answer: > 0.1 µM

Question: What about the IC50 (second compound 0.316 µM) of the same compound?
Answer: > 0.1 µM

Question: What about the IC50 (second compound 1 µM) of the same compound?
Answer: > 0.1 µM

Question: And the IC50 (second compound 3.16 µM)?
Answer: > 0.1 µM

Question: And the IC50 (second compound 10 µM)?
Answer: > 0.1 µM

Question: And the viability, T/C (second compound 0.0316 µM, first compound 0.000316 µM)?
Answer: 90.9%

Question: What about the viability, T/C (second compound 0.0316 µM, first compound 0.001 µM) of the same compound?
Answer: 82%

Question: And the viability, T/C (second compound 0.0316 µM, first compound 0.00316 µM)?
Answer: 84.9%

Question: And the viability, T/C (second compound 0.0316 µM, first compound 0.01 µM)?
Answer: 87.8%

Question: What about the viability, T/C [1] of the same compound?
Answer: 75.4%

Question: What about the viability, T/C [2] of the same compound?
Answer: 69%

Question: And the viability, T/C (second compound 0.1 µM, first compound 0.000316 µM)?
Answer: 99.7%

Question: And the viability, T/C (second compound 0.1 µM, first compound 0.001 µM)?
Answer: 106%

Question: What about the viability, T/C (second compound 0.1 µM, first compound 0.00316 µM) of the same compound?
Answer: 70.9%

Question: And the viability, T/C (second compound 0.1 µM, first compound 0.01 µM)?
Answer: 73.4%

Question: And the viability, T/C [7]?
Answer: 74.1%

Question: What about the viability, T/C [8] of the same compound?
Answer: 72.2%

Question: What about the viability, T/C (second compound 0.316 µM, first compound 0.000316 µM) of the same compound?
Answer: 90%

Question: What about the viability, T/C (second compound 0.316 µM, first compound 0.001 µM) of the same compound?
Answer: 94.7%

Question: What about the viability, T/C (second compound 0.316 µM, first compound 0.00316 µM) of the same compound?
Answer: 70.3%

Question: And the viability, T/C (second compound 0.316 µM, first compound 0.01 µM)?
Answer: 76.7%

Question: And the viability, T/C [13]?
Answer: 64.9%

Question: And the viability, T/C [14]?
Answer: 70%

Question: What about the viability, T/C (second compound 1 µM, first compound 0.000316 µM) of the same compound?
Answer: 85.7%

Question: And the viability, T/C (second compound 1 µM, first compound 0.001 µM)?
Answer: 77.8%

Question: What about the viability, T/C (second compound 1 µM, first compound 0.00316 µM) of the same compound?
Answer: 89%

Question: And the viability, T/C (second compound 1 µM, first compound 0.01 µM)?
Answer: 84.2%

Question: And the viability, T/C [19]?
Answer: 77.7%

Question: What about the viability, T/C [20] of the same compound?
Answer: 54.1%

Question: And the viability, T/C (second compound 3.16 µM, first compound 0.000316 µM)?
Answer: 79.9%

Question: What about the viability, T/C (second compound 3.16 µM, first compound 0.001 µM) of the same compound?
Answer: 85.9%

Question: And the viability, T/C (second compound 3.16 µM, first compound 0.00316 µM)?
Answer: 90.3%

Question: What about the viability, T/C (second compound 3.16 µM, first compound 0.01 µM) of the same compound?
Answer: 82.4%

Question: What about the viability, T/C [25] of the same compound?
Answer: 76.8%

Question: What about the viability, T/C [26] of the same compound?
Answer: 76.5%

Question: What about the viability, T/C (second compound 10 µM, first compound 0.000316 µM) of the same compound?
Answer: 89.7%

Question: What about the viability, T/C (second compound 10 µM, first compound 0.001 µM) of the same compound?
Answer: 71.3%

Question: And the viability, T/C (second compound 10 µM, first compound 0.00316 µM)?
Answer: 85.2%

Question: What about the viability, T/C (second compound 10 µM, first compound 0.01 µM) of the same compound?
Answer: 92.3%

Question: And the viability, T/C [31]?
Answer: 66.9%

Question: What about the viability, T/C [32] of the same compound?
Answer: 72.2%
